EC50 data for 15 molecules are collected here from patent publication US10730911B2, “Backbone-cyclized peptidomimetics with GLP-1R modulating activity” (POLYPHOR AG, priority 2015, dated 2020).

As usually defined, the EC50 is the concentration at which the effect is half-maximal.

Structures are written as SMILES. Where a SMILES comes first, the peptide text is derived from it. [ ]: non-standard residue; d: D form. Trp(5-OH) = N[C@@H](Cc1c[nH]c2ccc(O)cc12)C(=O)O; His(π-Bn) = N[C@@H](Cc1cncn1Cc1ccccc1)C(=O)O; Phe(4-CN) = N#Cc1ccc(C[C@H](N)C(=O)O)cc1; 3Pal = N[C@@H](Cc1cccnc1)C(=O)O; 4Pal = N[C@@H](Cc1ccncc1)C(=O)O; Ac6c = NC1(C(=O)O)CCCCC1; Ac5c = NC1(C(=O)O)CCCC1

T1 sequence (P43220 24-463): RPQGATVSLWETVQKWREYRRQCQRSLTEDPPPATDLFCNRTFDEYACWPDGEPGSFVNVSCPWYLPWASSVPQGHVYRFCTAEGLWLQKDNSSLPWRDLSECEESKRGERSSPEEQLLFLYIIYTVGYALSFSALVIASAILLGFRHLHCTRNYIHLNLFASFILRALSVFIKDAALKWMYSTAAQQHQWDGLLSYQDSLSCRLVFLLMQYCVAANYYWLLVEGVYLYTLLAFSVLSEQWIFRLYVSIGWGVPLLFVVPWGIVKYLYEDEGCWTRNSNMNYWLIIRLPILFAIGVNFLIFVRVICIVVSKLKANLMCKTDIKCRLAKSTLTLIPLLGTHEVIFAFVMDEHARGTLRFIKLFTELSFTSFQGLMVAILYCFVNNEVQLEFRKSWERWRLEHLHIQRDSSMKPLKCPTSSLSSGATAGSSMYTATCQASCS

This experiment addresses T1, human glucagon-like peptide-1 receptor (GLP-1R) (Homo sapiens, UniProt P43220).
T1 construct: host or cells: CHO chAMPion cells
Nature of the experiment: Human GLP-1 receptor cell-based assay (flash luminescence, Target Activation phase). To be noted: CHO chAMPion cells stably co-expressing human GLP-1R, Photina and cAMP-activated calcium channel; agonist activity; normalization by forskolin at 10 μM; ^a) values from single experiment; read-out: EC50 (μM) Target Activation (TA). The text has this:
CHO chAMPion cells (Axxam SpA; S. Corazza, Assay Drug Dev. Technol. 2009, 7, 304-307) stably co-expressing the human glucagon-like peptide-1 receptor (GLP-1R), the Ca^2+-sensitive photoprotein PHOTINA® (S. Bovolenta et al., J. Biomol. Screen. 2007, 12, 694-704) and a mutated cAMP-activated calcium ion channel (WO2004/083803 A2) were used to monitor GLP-1R signaling after stimulation with an agonist. Activation of the Gas-coupled GPCR GLP-1R was monitored by measuring the flash luminescence of the Ca^2+-sensitive photoprotein as reporter system with FLIPR^TETRA screening instrumentation (Molecular Devices) upgraded with an ICCD Camera (MDC). For data quality check and data analysis the Genedata SCREENER® software was used.
The reference agonist GLP-1 (glucagon-like peptide-1 amide fragment 7-36) and forskolin were purchased from Sigma (cat. G8147 and F6886, respectively) and prepared according to each ligand's specifications. All handling of ligands were done to ensure proper control throughout the experiments. The steps of the implemented workflow and data analysis are mainly as follows:
Stably transfected chAMPion cells are seeded 10000 c/w in 384 MTP in Dulbecco's MEM/nutrient mix F12 (BioWhittaker cat. BE04-687F/U1; 500 mL) supplemented with sodium pyruvate (BioWhittaker cat. BE13-115E; 5 mL of 100 mM solution), HEPES (BioWhittaker cat. BE17-737E; 6.5 mL of 1M solution), sodium bicarbonate (BioWhittaker cat. BE17-613E; 25 mL of 7.5% solution), fetal bovine serum (Euroclone cat. ECS 0180L; 50 mL), penicillin-streptomycin (BioWhittaker cat. DE17-602E; 5 mL of 100×solution), 1 mg/mL G418 (selection antibiotic for GLP-1R) and 200 μg/mL hygromycin in 25 μL/well for 24 hours. On the day of the experiment, plates are removed from the incubator, freed from the growth medium, equilibrated at room temperature for 1 h, loaded with 30 μl/well of Ca^2+ free Tyrode's buffer containing 20 μM coelentrazine and 500 μM IBMX, and incubated for 4 hours at room temperature.
All compounds were tested at 8 concentrations, starting from 50 μM in quadruplicate, intra-plate (dilution step 1:2.15) to determine EC50 values. After incubation, the volume in all the wells is flattened to 20 αL by aspiration with a CYBIO®-VARIO pipettor. First Injection (10 μL of test compounds in Ca^2+ free Tyrode's buffer, DMSO 0.5% v/v and BSA 0.01%; or 10 μL of reference compounds GLP-1 or forskolin in Ca′ free Tyrode's buffer, DMSO 0.5% v/v and BSA 0.01%) is performed by the FLIPR^TETRA and the kinetic response is optionally monitored over a period of 60 seconds. Incubation for 30 minutes at room temperature is followed by the Second Injection (Tyrode's buffer+10 mM CaCl2)) and the kinetic response is monitored over a period of 60 seconds.
The kinetic response is divided into two distinct phases: monitoring the kinetic response after the First Injection, termed Compound Addition (CA), and monitoring the kinetic response after the Second Injection of 10 mM CaCl2, termed Target Activation (TA). Agonist activity of compounds is evaluated in the Target Activation (TA) phase and it is based on normalization to TA activation by forskolin at 10 μM or GLP-1 at 3.16 nM (EC100)
A good correlation was observed between EC50, data normalized by forskolin and by GLP-1.
`C[C@@H]1NC(=O)[C@H](Cc2ccc(O)cc2)NC(=O)[C@H](CCC(N)=O)NC(=O)[C@H](Cc2ccncc2)NC(=O)[C@H](Cc2ccccc2)NC(=O)C2(CCCCC2)NC(=O)[C@H]2CCCN2C(=O)[C@H](Cc2ccc(O)cc2)NC(=O)[C@H](CCC(=O)O)NC(=O)[C@H](Cc2c[nH]c3ccccc23)NC1=O` [compound 33, cyclo(-Phe-4Pal-Gln-Tyr-Ala-Trp-Glu-Tyr-^DPro-Chx-)] (cyclo(F[4Pal]QYAWEY[dP][Ac6c])): the EC50 is 0.99 ± 0.37 µM.

As to `C[C@@H]1NC(=O)[C@H](Cc2ccc(O)cc2)NC(=O)[C@H](CCC(N)=O)NC(=O)[C@H](Cc2c[nH]c3ccccc23)NC(=O)[C@H](Cc2ccccc2)NC(=O)C2(CCCCC2)NC(=O)[C@H]2CCCN2C(=O)[C@H](Cc2c[nH]c3ccccc23)NC(=O)[C@H](CCC(=O)O)NC(=O)[C@H](Cc2c[nH]c3ccccc23)NC1=O` [compound 17, cyclo(-Phe-Trp-Gln-Tyr-Ala-Trp-Glu-Trp-^DPro-Chx-)] (cyclo(FWQYAWEW[dP][Ac6c])), the EC50 came out at 0.6 ± 0.29 µM.

For `C[C@@H]1NC(=O)[C@H](Cc2ccc(O)cc2)NC(=O)[C@H](CCC(N)=O)NC(=O)[C@H](Cc2ccccc2)NC(=O)[C@H](Cc2ccccc2)NC(=O)C2(CCCCC2)NC(=O)[C@H]2CCCN2C(=O)[C@H](Cc2ccc(O)cc2)NC(=O)[C@H](CCC(=O)O)NC(=O)[C@H](Cc2c[nH]c3ccccc23)NC1=O` [Ex. 1, cyclo(-Phe-Phe-Gln-Tyr-Ala-Trp-Glu-Tyr-^DPro-Chx-)] (cyclo(FFQYAWEY[dP][Ac6c])), the EC50 amounted to 0.09 ± 0.05 µM.

Consider `C[C@@H]1NC(=O)[C@H](Cc2ccc(O)cc2)NC(=O)[C@H](CCC(N)=O)NC(=O)[C@H](Cc2c[nH]c3ccccc23)NC(=O)[C@H](Cc2ccccc2)NC(=O)C2(CCCCC2)NC(=O)[C@H]2CCCN2C(=O)[C@H](Cc2ccccc2)NC(=O)[C@H](CCC(=O)O)NC(=O)[C@H](Cc2c[nH]c3ccccc23)NC1=O` [compound 24, cyclo(-Phe-Trp-Gln-Tyr-Ala-Trp-Glu-Phe-^DPro-Chx-)] (cyclo(FWQYAWEF[dP][Ac6c])), for which the EC50 is 0.89 ± 0.51 µM.

Consider `CC(C)C[C@@H]1NC(=O)[C@H](CCC(N)=O)NC(=O)[C@H](Cc2c[nH]c3ccccc23)NC(=O)[C@H](Cc2ccccc2)NC(=O)C2(CCCC2)NC(=O)[C@H]2CCCN2C(=O)[C@H](Cc2ccccc2)NC(=O)[C@H](CCC(=O)O)NC(=O)[C@H](Cc2c[nH]c3ccccc23)NC(=O)[C@H](C)NC1=O` [compound 46, cyclo(-Phe-Trp-Gln-Leu-Ala-Trp-Glu-Phe-^DPro-Cyp-)] (cyclo(FWQLAWEF[dP][Ac5c])), for which the EC50 came to 5.1 ± 1.4 µM.

For `CC(C)C[C@@H]1NC(=O)[C@H](CCC(=O)O)NC(=O)[C@H](Cc2ccccc2)NC(=O)C2(CCCCC2)NC(=O)[C@H]2CCCN2C(=O)[C@H](Cc2ccc(O)cc2)NC(=O)[C@H](CCC(=O)O)NC(=O)[C@H](Cc2c[nH]c3ccccc23)NC(=O)[C@H](C)NC(=O)[C@H](Cc2ccc(C#N)cc2)NC1=O` [compound 37, cyclo(-Phe-Glu-Leu-Phe(4CN)-Ala-Trp-Glu-Tyr-^DPro-Chx-)] (cyclo(FEL[Phe(4-CN)]AWEY[dP][Ac6c])), the concentration giving a half-maximal response (EC50) was found to be 0.88 µM.

On to `CC(C)C[C@@H]1NC(=O)[C@H](CCC(=O)O)NC(=O)[C@H](Cc2ccccc2)NC(=O)C2(CCCCC2)NC(=O)[C@H]2CCCN2C(=O)[C@H](Cc2cccnc2)NC(=O)[C@H](CCC(=O)O)NC(=O)[C@H](Cc2c[nH]c3ccccc23)NC(=O)[C@H](C)NC(=O)[C@H](Cc2ccc(O)cc2)NC1=O` [compound 41, cyclo(-Phe-Glu-Leu-Tyr-Ala-Trp-Glu-3Pal-^DPro-Chx-)] (cyclo(FELYAWE[3Pal][dP][Ac6c])), for which the EC50 is 0.83 ± 0.6 µM.

For the molecule `CC(C)C[C@@H]1NC(=O)[C@H](CCC(=O)O)NC(=O)[C@H](Cc2ccccc2)NC(=O)C2(CCCCC2)NC(=O)[C@H]2CCCN2C(=O)[C@H](CCCNC(=N)N)NC(=O)[C@H](CCC(=O)O)NC(=O)[C@H](Cc2c[nH]c3ccccc23)NC(=O)[C@H](C)NC(=O)[C@H](Cc2ccc(O)cc2)NC1=O` [compound 42, cyclo(-Phe-Glu-Leu-Tyr-Ala-Trp-Glu-Arg-^DPro-Chx-)] (cyclo(FELYAWER[dP][Ac6c])), the EC50 came to 2.2 ± 1 µM.

For the molecule `COc1ccc(C[C@@H]2NC(=O)[C@H](Cc3ccccc3)NC(=O)C3(CCCCC3)NC(=O)[C@H]3CCCN3C(=O)[C@H](Cc3ccc(O)cc3)NC(=O)[C@H](CCC(=O)O)NC(=O)[C@H](Cc3c[nH]c4ccccc34)NC(=O)[C@H](C)NC(=O)[C@H](Cc3ccc(O)cc3)NC(=O)[C@H](CCC(N)=O)NC2=O)cc1` [compound 32, cyclo(-Phe-Tyr(Me)-Gln-Tyr-Ala-Trp-Glu-Tyr-^DPro-Chx-)] (cyclo(FY(Me)QYAWEY[dP][Ac6c])), the EC50 was found to be 0.92 ± 0.31 µM.

Regarding `C[C@@H]1NC(=O)[C@H](Cc2ccc(O)cc2)NC(=O)[C@H](CCC(N)=O)NC(=O)[C@H](Cc2cccnc2)NC(=O)[C@H](Cc2ccccc2)NC(=O)C2(CCCCC2)NC(=O)[C@H]2CCCN2C(=O)[C@H](CCCNC(=N)N)NC(=O)[C@H](CCC(=O)O)NC(=O)[C@H](Cc2c[nH]c3ccccc23)NC1=O` [compound 19, cyclo(-Phe-3Pal-Gln-Tyr-Ala-Trp-Glu-Arg-^DPro-Chx-)] (cyclo(F[3Pal]QYAWER[dP][Ac6c])), the EC50 is 0.72 ± 0.38 µM.

Turning to `C[C@@H]1NC(=O)[C@H](Cc2ccc(O)cc2)NC(=O)[C@H](CCC(N)=O)NC(=O)[C@H](Cc2c[nH]c3ccccc23)NC(=O)[C@H](Cc2ccccc2)NC(=O)C2(CCCCC2)NC(=O)[C@H]2CCCN2C(=O)[C@H](Cc2cncn2Cc2ccccc2)NC(=O)[C@H](CCC(=O)O)NC(=O)[C@H](Cc2c[nH]c3ccccc23)NC1=O` [compound 15, cyclo(-Phe-Trp-Gln-Tyr-Ala-Trp-Glu-His(Bn)-^DPro-Chx-)] (cyclo(FWQYAWE[His(π-Bn)][dP][Ac6c])), the EC50 amounted to 0.7 ± 0.42 µM.

On to `CC(C)C[C@@H]1NC(=O)[C@H](CCC(=O)O)NC(=O)[C@H](Cc2ccccc2)NC(=O)C2(CCCCC2)NC(=O)[C@H]2CCCN2C(=O)[C@H](Cc2ccccc2)NC(=O)[C@H](CCC(=O)O)NC(=O)[C@H](Cc2c[nH]c3ccccc23)NC(=O)[C@H](C)NC(=O)[C@H](Cc2ccc(O)cc2)NC1=O` [compound 31, cyclo(-Phe-Glu-Leu-Tyr-Ala-Trp-Glu-Phe-^DPro-Chx-)] (cyclo(FELYAWEF[dP][Ac6c])), for which the EC50 came out at 0.68 µM.

In the case of `CC(C)C[C@@H]1NC(=O)[C@H](CCC(=O)O)NC(=O)[C@H](Cc2ccccc2)NC(=O)C2(CCCCC2)NC(=O)[C@H]2CCCN2C(=O)[C@H](Cc2c[nH]c3ccc(O)cc23)NC(=O)[C@H](CCC(=O)O)NC(=O)[C@H](Cc2c[nH]c3ccccc23)NC(=O)[C@H](C)NC(=O)[C@H](Cc2ccc(O)cc2)NC1=O` [compound 25, cyclo(-Phe-Glu-Leu-Tyr-Ala-Trp-Glu-Trp(5OH)-^DPro-Chx-)] (cyclo(FELYAWE[Trp(5-OH)][dP][Ac6c])), the EC50 came to 0.94 ± 0.68 µM.

On to `COc1ccc(C[C@@H]2NC(=O)[C@H](CCC(N)=O)NC(=O)[C@H](Cc3c[nH]c4ccccc34)NC(=O)[C@H](Cc3ccccc3)NC(=O)C3(CCCCC3)NC(=O)[C@H]3CCCN3C(=O)[C@H](CCCNC(=N)N)NC(=O)[C@H](CCC(=O)O)NC(=O)[C@H](Cc3c[nH]c4ccccc34)NC(=O)[C@H](C)NC2=O)cc1` [compound 23, cyclo(-Phe-Trp-Gln-Tyr(Me)-Ala-Trp-Glu-Arg-^DPro-Chx-)] (cyclo(FWQY(Me)AWER[dP][Ac6c])), for which the EC50 was found to be 0.67 ± 0.22 µM.

`C[C@@H]1NC(=O)[C@H](Cc2ccc(O)cc2)NC(=O)[C@H](CCC(N)=O)NC(=O)[C@H](Cc2cncn2Cc2ccccc2)NC(=O)[C@H](Cc2ccccc2)NC(=O)C2(CCCCC2)NC(=O)[C@H]2CCCN2C(=O)[C@H](Cc2ccc(O)cc2)NC(=O)[C@H](CCC(=O)O)NC(=O)[C@H](Cc2c[nH]c3ccccc23)NC1=O` [Ex. 4, cyclo(-Phe-His(Bn)-Gln-Tyr-Ala-Trp-Glu-Tyr-^DPro-Chx-)] (cyclo(F[His(π-Bn)]QYAWEY[dP][Ac6c])): the EC50 amounted to 0.09 ± 0.02 µM.
